Measurements as given in ChEMBL document CHEMBL5325456, “5-(4-Hydroxyphenyl)-3H-1,2-dithiole-3-thione derivatives of brefeldin A: Design, synthesis and cytotoxicity in MDA-MB-231 human breast cancer cells” (Bioorg Med Chem, 2023).

Experiments:
A549 = assay: Antiproliferative activity against human A549 cells assessed as reduction in cell viability incubated for 48 hrs by CCk-8 assay; format: functional, cell-based; conditions: A549, 48 h
DU-145 = assay: Antiproliferative activity against human DU-145 cells assessed as reduction in cell viability incubated for 48 hrs by CCk-8 assay; format: functional, cell-based; conditions: DU-145, 48 h
[1] = Selectivity index, ratio of IC50 for antiproliferative activity against human L02 cells to IC50 for antiproliferative activity against human MDA-MB-231 cells; format: toxicity, cell-based; conditions: L02 cells and MDA-MB-231 cells, read-out: Ratio IC50
A-375 = assay: Antiproliferative activity against human A-375 cells assessed as reduction in cell viability incubated for 48 hrs by CCk-8 assay; format: functional, cell-based; conditions: A-375, 48 h
HeLa = assay: Antiproliferative activity against human HeLa cells assessed as reduction in cell viability incubated for 48 hrs by CCk-8 assay; format: functional, cell-based
HepG2 = assay: Antiproliferative activity against human HepG2 cells assessed as reduction in cell viability incubated for 48 hrs by CCk-8 assay; format: functional, cell-based; conditions: HepG2, 48 h
MDA-MB-231 = assay: Antiproliferative activity against human MDA-MB-231 cells assessed as reduction in cell viability incubated for 48 hrs by CCk-8 assay; format: functional, cell-based; conditions: MDA-MB-231, 48 h
[2] = Antiproliferative activity against human L02 cells assessed as reduction in cell viability incubated for 48 hrs by CCk-8 assay; format: toxicity, cell-based

SMILES	IC50 (A549) [µM]	IC50 (DU-145) [µM]	selectivity ratio [1]	IC50 (A-375) [µM]	IC50 (HeLa) [µM]	IC50 (HepG2) [µM]	IC50 (MDA-MB-231) [µM]	IC50 at 48 h [2] [µM]
C[C@H]1CCC/C=C/[C@@H]2C[C@H](O)C[C@H]2[C@H](OC(=O)CCCC(=O)OCCCCOc2ccc(-c3cc(=S)ss3)cc2)/C=C/C(=O)O1	1.04	0.43	2.69	0.93	0.23	0.44	0.16	0.43
C[C@H]1CCC/C=C/[C@@H]2C[C@H](OC(=O)c3ccccc3C(=O)OCCCCOc3ccc(-c4cc(=S)ss4)cc3)C[C@H]2[C@H](OC(=O)c2ccccc2C(=O)OCCCCOc2ccc(-c3cc(=S)ss3)cc2)/C=C/C(=O)O1	> 40	> 40	–	> 40	> 40	> 40	> 40	> 40
C[C@H]1CCC/C=C/[C@@H]2C[C@H](OC(=O)CCC(=O)OCCCCCCOc3ccc(-c4cc(=S)ss4)cc3)C[C@H]2[C@H](OC(=O)CCC(=O)OCCCCCCOc2ccc(-c3cc(=S)ss3)cc2)/C=C/C(=O)O1	> 40	> 40	–	> 40	> 40	> 40	> 40	> 40
C[C@H]1CCC/C=C/[C@@H]2C[C@H](OC(=O)CCC(=O)OCCCCOc3ccc(-c4cc(=S)ss4)cc3)C[C@H]2[C@H](O)/C=C/C(=O)O1	> 40	> 40	–	> 40	> 40	> 40	> 40	> 80
C[C@H]1CCC/C=C/[C@@H]2C[C@H](O)C[C@H]2[C@H](OC(=O)CCC(=O)OCCCCOc2ccc(-c3cc(=S)ss3)cc2)/C=C/C(=O)O1	1.46	0.87	3.28	0.83	0.86	0.72	0.5	1.64
C[C@H]1CCC/C=C/[C@@H]2C[C@H](OC(=O)CCCC(=O)OCCCCOc3ccc(-c4cc(=S)ss4)cc3)C[C@H]2[C@H](OC(=O)CCCC(=O)OCCCCOc2ccc(-c3cc(=S)ss3)cc2)/C=C/C(=O)O1	> 40	> 40	–	> 40	> 40	> 40	> 40	> 40
C[C@H]1CCC/C=C/[C@@H]2C[C@H](OC(=O)CCC(=O)Oc3ccc(-c4cc(=S)ss4)cc3)C[C@H]2[C@H](OC(=O)CCC(=O)Oc2ccc(-c3cc(=S)ss3)cc2)/C=C/C(=O)O1	> 40	> 40	–	> 40	> 40	> 40	> 40	> 40
C[C@H]1CCC/C=C/[C@@H]2C[C@H](OC(=O)c3ccccc3C(=O)OCCCCCCOc3ccc(-c4cc(=S)ss4)cc3)C[C@H]2[C@H](OC(=O)c2ccccc2C(=O)OCCCCCCOc2ccc(-c3cc(=S)ss3)cc2)/C=C/C(=O)O1	> 40	> 40	–	> 40	> 40	> 40	> 40	> 40
C[C@H]1CCC/C=C/[C@@H]2C[C@H](O)C[C@H]2[C@H](OC(=O)CCC(=O)Oc2ccc(-c3cc(=S)ss3)cc2)/C=C/C(=O)O1	3.19	16.1	6.06	3.62	2.35	7.44	1.35	8.18
C[C@H]1CCC/C=C/[C@@H]2C[C@H](O)C[C@H]2[C@H](OC(=O)CCCC(=O)Oc2ccc(-c3cc(=S)ss3)cc2)/C=C/C(=O)O1	18.2	19.5	2.57	30	5.3	18	9.65	24.8
C[C@H]1CCC/C=C/[C@@H]2C[C@H](OC(=O)CCCC(=O)OCCOc3ccc(-c4cc(=S)ss4)cc3)C[C@H]2[C@H](OC(=O)CCCC(=O)OCCOc2ccc(-c3cc(=S)ss3)cc2)/C=C/C(=O)O1	> 40	> 40	–	> 40	> 40	> 40	> 40	> 40
C[C@H]1CCC/C=C/[C@@H]2C[C@H](OC(=O)CCC(=O)OCCOc3ccc(-c4cc(=S)ss4)cc3)C[C@H]2[C@H](OC(=O)CCC(=O)OCCOc2ccc(-c3cc(=S)ss3)cc2)/C=C/C(=O)O1	> 40	> 40	–	> 40	5.68	> 40	> 40	> 40
C[C@H]1CCC/C=C/[C@@H]2C[C@H](O)C[C@H]2[C@H](OC(=O)c2ccccc2C(=O)OCCCCCCOc2ccc(-c3cc(=S)ss3)cc2)/C=C/C(=O)O1	> 40	> 40	–	> 40	> 40	> 40	> 40	> 80
C[C@H]1CCC/C=C/[C@@H]2C[C@H](OC(=O)CCCC(=O)Oc3ccc(-c4cc(=S)ss4)cc3)C[C@H]2[C@H](OC(=O)CCCC(=O)Oc2ccc(-c3cc(=S)ss3)cc2)/C=C/C(=O)O1	> 40	> 40	–	> 40	> 40	> 40	> 40	> 40
C[C@H]1CCC/C=C/[C@@H]2C[C@H](O)C[C@H]2[C@H](OC(=O)CCC(=O)OCCCCCCOc2ccc(-c3cc(=S)ss3)cc2)/C=C/C(=O)O1	1.52	3.64	2.31	0.64	0.77	3.42	1.41	3.26
C[C@H]1CCC/C=C/[C@@H]2C[C@H](OC(=O)c3ccccc3C(=O)OCCOc3ccc(-c4cc(=S)ss4)cc3)C[C@H]2[C@H](OC(=O)c2ccccc2C(=O)OCCOc2ccc(-c3cc(=S)ss3)cc2)/C=C/C(=O)O1	> 40	> 40	–	> 40	> 40	> 40	> 40	> 40
C[C@H]1CCC/C=C/[C@@H]2C[C@H](O)C[C@H]2[C@H](OC(=O)c2ccccc2C(=O)OCCCCOc2ccc(-c3cc(=S)ss3)cc2)/C=C/C(=O)O1	> 40	> 40	–	> 40	26.9	> 40	> 40	> 80
C[C@H]1CCC/C=C/[C@@H]2C[C@H](OC(=O)CCC(=O)OCCCCCCOc3ccc(-c4cc(=S)ss4)cc3)C[C@H]2[C@H](O)/C=C/C(=O)O1	> 40	> 40	–	> 40	25.2	> 40	> 40	> 80
C[C@H]1CCC/C=C/[C@@H]2C[C@H](OC(=O)c3ccccc3C(=O)Oc3ccc(-c4cc(=S)ss4)cc3)C[C@H]2[C@H](OC(=O)c2ccccc2C(=O)Oc2ccc(-c3cc(=S)ss3)cc2)/C=C/C(=O)O1	> 40	> 40	–	> 40	> 40	> 40	> 40	> 40
CC(=O)O[C@H]1C(=O)[C@@]2(C)[C@H]([C@H](OC(=O)c3ccccc3)[C@]3(O)C[C@H](OC(=O)[C@H](O)[C@@H](NC(=O)c4ccccc4)c4ccccc4)C(C)=C1C3(C)C)[C@]1(OC(C)=O)CO[C@@H]1C[C@@H]2O [PACLITAXEL]	0.014	–	–	0.059	0.034	0.55	0.33	0.13
Oc1ccc(-c2cc(=S)ss2)cc1	27.6	12.7	–	> 40	6.48	13.8	33.2	16.8
C[C@H]1CCC/C=C/[C@@H]2C[C@H](OC(=O)CCCC(=O)OCCCCCCOc3ccc(-c4cc(=S)ss4)cc3)C[C@H]2[C@H](OC(=O)CCCC(=O)OCCCCCCOc2ccc(-c3cc(=S)ss3)cc2)/C=C/C(=O)O1	> 40	> 40	–	> 40	> 40	> 40	> 40	> 40
C[C@H]1CCC/C=C/[C@@H]2C[C@H](OC(=O)CCC(=O)OCCOc3ccc(-c4cc(=S)ss4)cc3)C[C@H]2[C@H](O)/C=C/C(=O)O1	> 40	> 40	–	> 40	> 40	> 40	> 40	> 80
C[C@H]1CCC/C=C/[C@@H]2C[C@H](OC(=O)CCC(=O)OCCCCOc3ccc(-c4cc(=S)ss4)cc3)C[C@H]2[C@H](OC(=O)CCC(=O)OCCCCOc2ccc(-c3cc(=S)ss3)cc2)/C=C/C(=O)O1	> 40	> 40	–	> 40	> 40	> 40	> 40	> 40
C[C@H]1CCC/C=C/[C@@H]2C[C@H](O)C[C@H]2[C@H](OC(=O)c2ccccc2C(=O)OCCOc2ccc(-c3cc(=S)ss3)cc2)/C=C/C(=O)O1	> 40	> 40	–	> 40	> 40	> 40	> 40	> 80
